In patent US8377939B2, “Oxadiazole derivatives and their use as metabotropic glutamate receptor potentiators 842” (AstraZeneca AB, priority 2007, dated 2013):
≈ marks a conversion by molar mass, not a printed value.

Legend:
human mGluR2 = target: T1, human mGluR2 (Homo sapiens, UniProt Q14416); assay: [35S]-GTPγS binding assay, allosteric activator activity with CHO cell membranes; type: biochemical; settings: membranes of CHO cells expressing human mGluR2, 1 μM glutamate; read-out: GTPgS EC50
T1 construct: expressed in transfected cells; host or cells: CHO cells, stably transfected; membranes
Experimental: A [^35S]-GTPγS binding assay was used to functionally assay mGluR2 receptor activation. The allosteric activator activity of compounds at the human mGluR2 receptor were measured using a [^35S]-GTPγS binding assay with membranes prepared from CHO cells which stably express the human mGluR2. The assay is based upon the principle that agonists bind to G-protein coupled receptors to stimulate GDP-GTP exchange at the G-protein. Since [^35S]-GTPγS is a non-hydrolyzable GTP analog, it can be used to provide an index of GDP-GTP exchange and, thus, receptor activation. The GTPγS binding assay therefore provides a quantitative measure of receptor activation.
Membranes were prepared from CHO cells stably transfected with human mGluR2. Membranes (30 μg protein) were incubated with test compound (3 nM to 300 μM) for 15 minutes at room temperature prior to the addition of 1 μM glutamate, and incubated for 30 min at 30° C. in 500 μl assay buffer (20 mM HEPES, 100 mM NaCl, 10 mM MgCl2), containing 30 μM GDP and 0.1 nM [^35S]-GTPγS (1250 Ci/mmol). Reactions were carried out in triplicate in 2 ml polypropylene 96-well plates. Reactions were terminated by vacuum filtration using a Packard 96-well harvester and Unifilter-96, GF/B filter microplates. The filter plates were washed 4×1.5 ml with ice-cold wash buffer (10 mM sodium phosphate buffer, pH 7.4). The filter plates were dried and 35 μl of scintillation fluid (Microscint 20) was added to each well. The amount of radioactivity bound was determined by counting plates on the Packard TopCount. Data was analyzed using GraphPad Prism, and EC50 and Emax values (relative to the maximum glutamate effect) were calculated using non-linear regression.

[1] = Aqueous solubility in pH 7.4 phosphate buffer; type: physicochemical; settings: thermodynamic from solid, equilibration 24 h at 25° C.
Experimental: Solubility was determined in pH 7.4 phosphate buffer after equilibration for 24 h at 25° C. and HPLC-UV and LC-MSMS were used for quantitation.

hERG ion channel = hERG ion channel (Homo sapiens, UniProt Q12809); assay: hERG activity (process of Bridgland-Taylor et al.); type: cell-based
Experimental: hERG activity was assessed using the process described by Bridgland-Taylor, M. H., et al, J. Pharm. Tox. Methods 54 (2006) 189-199.

Sequence of hERG ion channel (Q12809 whole entry): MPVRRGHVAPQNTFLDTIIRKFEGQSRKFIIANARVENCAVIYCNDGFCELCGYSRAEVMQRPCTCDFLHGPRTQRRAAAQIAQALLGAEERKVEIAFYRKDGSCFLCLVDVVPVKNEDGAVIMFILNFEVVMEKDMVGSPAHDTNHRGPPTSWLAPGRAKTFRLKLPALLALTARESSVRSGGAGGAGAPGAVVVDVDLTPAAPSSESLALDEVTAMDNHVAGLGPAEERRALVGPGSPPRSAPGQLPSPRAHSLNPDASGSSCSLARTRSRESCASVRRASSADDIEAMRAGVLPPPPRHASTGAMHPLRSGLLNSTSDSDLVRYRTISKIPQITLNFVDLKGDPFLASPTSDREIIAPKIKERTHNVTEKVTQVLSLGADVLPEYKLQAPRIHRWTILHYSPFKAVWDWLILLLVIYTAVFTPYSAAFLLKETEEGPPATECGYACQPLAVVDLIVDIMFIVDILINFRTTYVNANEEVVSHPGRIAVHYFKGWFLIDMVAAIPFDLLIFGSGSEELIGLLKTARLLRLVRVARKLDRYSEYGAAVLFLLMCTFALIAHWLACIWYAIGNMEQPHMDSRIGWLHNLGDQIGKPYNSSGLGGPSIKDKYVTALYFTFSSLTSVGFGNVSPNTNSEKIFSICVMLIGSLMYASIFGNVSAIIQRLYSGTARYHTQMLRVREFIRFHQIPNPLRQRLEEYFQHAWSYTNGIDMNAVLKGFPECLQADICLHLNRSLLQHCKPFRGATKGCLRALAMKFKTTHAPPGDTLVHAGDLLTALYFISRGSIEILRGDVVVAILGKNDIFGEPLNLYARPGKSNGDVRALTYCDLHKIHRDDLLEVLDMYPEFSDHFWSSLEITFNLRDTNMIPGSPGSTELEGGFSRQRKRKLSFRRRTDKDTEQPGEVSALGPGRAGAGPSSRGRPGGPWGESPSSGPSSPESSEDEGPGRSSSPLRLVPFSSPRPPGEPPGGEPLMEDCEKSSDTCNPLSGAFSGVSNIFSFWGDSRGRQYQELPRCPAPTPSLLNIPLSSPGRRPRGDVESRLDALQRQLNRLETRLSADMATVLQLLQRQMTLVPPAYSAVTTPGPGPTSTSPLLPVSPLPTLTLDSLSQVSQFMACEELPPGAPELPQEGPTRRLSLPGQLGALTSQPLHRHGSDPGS
T1 sequence (Q14416 19-872): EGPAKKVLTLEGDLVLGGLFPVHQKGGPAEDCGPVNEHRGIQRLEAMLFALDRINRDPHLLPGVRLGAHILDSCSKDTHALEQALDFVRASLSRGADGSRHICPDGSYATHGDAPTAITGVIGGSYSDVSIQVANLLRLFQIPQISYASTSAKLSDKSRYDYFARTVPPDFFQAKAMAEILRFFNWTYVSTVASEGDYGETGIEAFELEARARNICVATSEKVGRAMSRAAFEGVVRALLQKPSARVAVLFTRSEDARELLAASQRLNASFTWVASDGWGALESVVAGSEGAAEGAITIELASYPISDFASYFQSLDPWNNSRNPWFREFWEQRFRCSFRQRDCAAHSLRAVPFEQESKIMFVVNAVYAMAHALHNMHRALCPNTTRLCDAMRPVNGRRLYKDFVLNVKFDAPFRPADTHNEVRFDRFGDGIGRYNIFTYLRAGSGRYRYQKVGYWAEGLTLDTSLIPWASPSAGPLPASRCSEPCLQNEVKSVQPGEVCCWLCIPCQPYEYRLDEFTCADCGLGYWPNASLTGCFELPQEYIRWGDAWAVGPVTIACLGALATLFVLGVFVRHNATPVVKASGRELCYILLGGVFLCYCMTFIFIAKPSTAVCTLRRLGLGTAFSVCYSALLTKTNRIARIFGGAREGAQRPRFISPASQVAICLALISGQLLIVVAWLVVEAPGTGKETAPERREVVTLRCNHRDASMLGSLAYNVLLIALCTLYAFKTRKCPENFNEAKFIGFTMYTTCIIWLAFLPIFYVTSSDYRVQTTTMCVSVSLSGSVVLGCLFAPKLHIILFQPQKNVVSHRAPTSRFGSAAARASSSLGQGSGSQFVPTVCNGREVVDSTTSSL

Row | SMILES | EC50 (human mGluR2) [nM] | solubility at 24 h [1] [µM] | hERG (hERG ion channel) [µM]
1 | Cc1cc(-c2nc(CN3CCNC(C)C3)no2)cc2c1C(=O)N(Cc1ccc(Cl)cc1)C2 (centres unmarked) [Example 3, 2-(4-Chloro-benzyl)-7-methyl-5-[3-(3-methyl-piperazin-1-ylmethyl)-[1,2,4]oxadiazol-5-yl]-2,3-dihydro-isoindol-1-one] | 154 | 396 (≈ 179 µg/mL) | 12.0
2 | Cc1cc(-c2nc(CN3CCNCC3)no2)cc2c1C(=O)N(Cc1ccc(Cl)cc1)C2 [Example 4, 2-(4-Chloro-benzyl)-7-methyl-5-(3-piperazin-1-ylmethyl-[1,2,4]oxadiazol-5-yl)-2,3-dihydro-isoindol-1-one] | 378 | > 500 | 25.0
3 | Cc1cc(-c2nc(CN3CCNCC3)no2)cc2c1C(=O)N(Cc1ccc(OC(F)(F)F)cc1)C2 [Example 1, 7-Methyl-5-(3-piperazin-1-ylmethyl-[1,2,4]oxadiazol-5-yl)-2-(4-trifluoromethoxybenzyl)-2,3-dihydroisoindol-1-one] | – | 44.9 (≈ 21.9 µg/mL) | 11.0
4 | Cc1cc(-c2nc(CN3CCNC[C@H]3C)no2)cc2c1C(=O)N(Cc1ccc(Cl)cc1)C2 [Example 6, 2-(4-Chloro-benzyl)-7-methyl-5-[3-(2-methyl-piperazin-1-ylmethyl)-[1,2,4]oxadiazol-5-yl]-2,3-dihydro-isoindol-1-one] | 317 | > 500 | 18.7
5 | Cc1cc(-c2nc(CN3CCNC[C@@H]3C)no2)cc2c1C(=O)N(Cc1ccc(Cl)cc1)C2 [Example 5, 2-(4-Chloro-benzyl)-7-methyl-5-[3-(2-methyl-piperazin-1-ylmethyl)-[1,2,4]oxadiazol-5-yl]-2,3-dihydro-isoindol-1-one] | 352 | 384 (≈ 174 µg/mL) | 12.6
6 | Cc1cc(-c2nc(CN3C[C@@H]4C[C@H]3CN4)no2)cc2c1C(=O)N(Cc1ccc(Cl)cc1)C2 [Example 2, 2-(4-Chloro-benzyl)-5-[3-(2,5-diaza-bicyclo[2.2.1]hept-2-ylmethyl)-[1,2,4]oxadiazol-5-yl]-7-methyl-2,3-dihydro-isoindol-1-one] | 206 | 336 (≈ 151 µg/mL) | 33.0
